Experimental findings from US7511119B2, “PRAME peptide analogues” (MannKind Corporation, priority 2005, dated 2009) are described below.

“Also recorded” adds a separate entry of the source. Square brackets hold non-standard residues; d marks the D form. Ends that are not written are not given here. Peptide text beside a SMILES is read from it. Phe(4-NO2) = N[C@@H](Cc1ccc([N+](=O)[O-])cc1)C(=O)O; Bta = N[C@@H](Cc1csc2ccccc12)C(=O)O; Phg = N[C@H](C(=O)O)c1ccccc1; Nle = CCCC[C@H](N)C(=O)O; Nva = CCC[C@H](N)C(=O)O Bounds are passed on as bounds.

For test [1], the system named is T cell lines against natural epitope SSX-241-49. Kind of test: Cross-reactivity and functional avidity: IFN-gamma production by T cell lines raised against natural SSX-2 41-49.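 For all read-outs here: analogs presented ex vivo by competent APCs to T cells specific for the non-mutated epitope, scored by lowest activating concentration, peak cytokine effect and concentration at that peak.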 The following applies: for Cross-reactivity and fct avidity (native to analogs)*: T cells raised to native peptide tested on analogs, footnote * and unit not given; for activity in cross-reactivity assay (IFN-gamma production by wild-type SSX-2 41-49 specific T cells), in words: compared with wild-type peptide. The class given is cell-based, HHD transgenic mice.

Test [2] concerns the target HLA-A*0201 (Homo sapiens, UniProt P04439, D140Y/D185E/D98H/E176V/E277Q/G131W/G231S/I119V/I121R/I166T/I218V/L300P/L318F/N151K/N90K/P208A/P217A/Q86G/Q94H/R138H/R169H/T345S). Kind of test: Peptide binding using T2 cells.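 Note: Read-out is peptide-induced stabilization of HLA-A*0201 on the cell surface, reflecting mainly Kon at limiting peptide levels and both Kon and Koff at saturating levels.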 Particulars: half maximal binding of wild-type peptide relative to analog.
Text: Thus, at limiting concentrations of peptide, it is a measurement of Kon mostly and at saturation levels of peptide it is a measurement of both Kon and Koff.
Thus, at limiting concentrations of peptide, this is a measurement of Kon mostly and at saturation levels of peptide that is a measurement of both Kon and Koff.

Take `CC[C@H](C)[C@H](NC(=O)[C@H](CCCCN)NC(=O)[C@H](CCC(=O)O)NC(=O)[C@H](CO)NC(=O)[C@H](C)NC(=O)[C@@H](N)Cc1ccc(OC)cc1)C(=O)N[C@@H](Cc1ccccc1)C(=O)N[C@@H](Cc1ccc(O)cc1)C(=O)N[C@H](C(=O)O)C(C)C` [SSX2 41-49 (K41(O-methyl Tyr))] (H-Y(Me)ASEKIFYV-OH): the “Cross-reactivity and fct avidity (native to analogs)*” value in test [1] is listed as 3. The “Relative affinity (1/RA)” value in test [2] was determined as 0.8. Regarding `CC[C@H](C)[C@H](NC(=O)[C@H](CCCCN)NC(=O)[C@H](CCC(=O)O)NC(=O)[C@H](CO)NC(=O)[C@H](C)NC(=O)[C@@H](N)Cc1ccc([N+](=O)[O-])cc1)C(=O)N[C@@H](Cc1ccccc1)C(=O)N[C@@H](Cc1ccc(O)cc1)C(=O)N[C@H](C(=O)O)C(C)C` [SSX2 41-49 (K41(Phe-4NO2))] (H-[Phe(4-NO2)]ASEKIFYV-OH), the “Cross-reactivity and fct avidity (native to analogs)*” value in test [1] is 3. For the same molecule, the “Relative affinity (1/RA)” value in test [2] is listed as 1.1. With `CC[C@H](C)[C@H](NC(=O)[C@H](CCCCN)NC(=O)[C@H](CCC(=O)O)NC(=O)[C@H](CO)NC(=O)[C@H](C)NC(=O)[C@@H](N)c1ccccc1)C(=O)N[C@@H](Cc1ccccc1)C(=O)N[C@@H](Cc1ccc(O)cc1)C(=O)N[C@H](C(=O)O)C(C)C` [SSX2 41-49 (K41(Phg))] (H-[Phg]ASEKIFYV-OH), the “Cross-reactivity and fct avidity (native to analogs)*” value in test [1] was 0.1. In addition, in test [2], the “Relative affinity (1/RA)” value is listed as 2.5.

Regarding `CC[C@H](C)[C@H](NC(=O)[C@H](CCCCN)NC(=O)[C@H](CCC(=O)O)NC(=O)[C@H](CO)NC(=O)[C@H](C)NC(=O)[C@@H](N)Cc1csc2ccccc12)C(=O)N[C@@H](Cc1ccccc1)C(=O)N[C@@H](Cc1ccc(O)cc1)C(=O)N[C@H](C(=O)O)C(C)C` [SSX2 41-49 (K41(b-(3-benzothienyl)Ala))] (H-[Bta]ASEKIFYV-OH), the “Cross-reactivity and fct avidity (native to analogs)*” value in test [1] is reported as 10. Besides, the “Relative affinity (1/RA)” value in test [2] was determined as 0.6. Taken in the same sequence, the figures for `CCCC[C@H](NC(=O)[C@H](CO)NC(=O)[C@@H](NC(=O)[C@@H](N)Cc1ccccc1)C(C)C)C(=O)N[C@@H](CCCCN)C(=O)N[C@H](C(=O)N[C@@H](Cc1ccccc1)C(=O)N[C@@H](Cc1ccc(O)cc1)C(=O)N[C@H](C(=O)O)C(C)C)[C@@H](C)CC` [SSX2 41-49 (K41F, A42V, E44Nle), FVS(Nle)KIFYV] (H-FVS[Nle]KIFYV-OH) were 10 and 1.1. Taken in the same sequence, the figures for `CCC[C@H](NC(=O)[C@H](CO)NC(=O)[C@@H](NC(=O)[C@@H](N)Cc1ccccc1)C(C)C)C(=O)N[C@@H](CCCCN)C(=O)N[C@H](C(=O)N[C@@H](Cc1ccccc1)C(=O)N[C@@H](Cc1ccc(O)cc1)C(=O)N[C@H](C(=O)O)C(C)C)[C@@H](C)CC` [SSX2 41-49 (K41F, A42V, E44Nva), FVS(Nva)KIFYV] (H-FVS[Nva]KIFYV-OH) were 3 and 3.9. On to `CCCC[C@H](NC(=O)[C@H](CCCCN)NC(=O)[C@H](CCC(=O)O)NC(=O)[C@H](CO)NC(=O)[C@@H](NC(=O)[C@@H](N)Cc1ccccc1)C(C)C)C(=O)N[C@@H](Cc1ccccc1)C(=O)N[C@@H](Cc1ccc(O)cc1)C(=O)N[C@H](C(=O)O)C(C)C` [SSX2 41-49 (K41F, A42V, I46Nle), FVSEK(Nle)FYV] (H-FVSEK[Nle]FYV-OH), for which, in test [1], the “Cross-reactivity and fct avidity (native to analogs)*” value came to 10. Moreover, in test [2], the “Relative affinity (1/RA)” value was 1.1. Regarding `CCC[C@H](NC(=O)[C@H](CCCCN)NC(=O)[C@H](CCC(=O)O)NC(=O)[C@H](CO)NC(=O)[C@@H](NC(=O)[C@@H](N)Cc1ccccc1)C(C)C)C(=O)N[C@@H](Cc1ccccc1)C(=O)N[C@@H](Cc1ccc(O)cc1)C(=O)N[C@H](C(=O)O)C(C)C` [SSX2 41-49 (K41F, A42V, I46Nva), FVSEK(Nva)FYV] (H-FVSEK[Nva]FYV-OH), the “Cross-reactivity and fct avidity (native to analogs)*” value in test [1] amounted to 1. Further, the “Relative affinity (1/RA)” value in test [2] came out at 2.4.

As to `CC[C@H](C)[C@H](NC(=O)[C@H](CCCCN)NC(=O)[C@H](CCC(=O)O)NC(=O)[C@H](CO)NC(=O)[C@H](C)NC(=O)[C@@H](N)Cc1c[nH]c2ccccc12)C(=O)N[C@@H](Cc1ccccc1)C(=O)N[C@@H](Cc1ccc(O)cc1)C(=O)N[C@H](C(=O)O)C(C)C` [SSX2 41-49 (K41W)], the “Cross-reactivity and fct avidity (native to analogs)*” value in test [1] is greater than 10. Regarding `CC[C@H](C)[C@H](NC(=O)[C@H](CCCCN)NC(=O)[C@H](CCC(=O)O)NC(=O)[C@H](CO)NC(=O)[C@@H](NC(=O)[C@@H](N)Cc1c[nH]c2ccccc12)[C@@H](C)CC)C(=O)N[C@@H](Cc1ccccc1)C(=O)N[C@@H](Cc1ccc(O)cc1)C(=O)N[C@H](C(=O)O)C(C)C` [SSX2 41-49 (K41W, A42I)], the “Cross-reactivity and fct avidity (native to analogs)*” value in test [1] is 0.1. Still for that read-out and setting: then `CC[C@H](C)[C@H](NC(=O)[C@H](CCCCN)NC(=O)[C@H](CCC(=O)O)NC(=O)[C@H](CO)NC(=O)[C@@H](NC(=O)[C@@H](N)Cc1ccc(O)cc1)[C@@H](C)CC)C(=O)N[C@@H](Cc1ccccc1)C(=O)N[C@@H](Cc1ccc(O)cc1)C(=O)N[C@H](C(=O)O)C(C)C` [SSX2 41-49 (K41Y, A42I)], with 1.

For the molecule `CC[C@H](C)[C@H](NC(=O)[C@H](CCCCN)NC(=O)[C@H](CCC(=O)O)NC(=O)[C@H](CO)NC(=O)[C@H](C)NC(=O)[C@@H](N)CCCCN)C(=O)N[C@@H](Cc1ccccc1)C(=O)N[C@@H](Cc1ccc(O)cc1)C(=O)N[C@H](C(=O)O)C(C)C` [SSX2 41-49, reference compound], in test [1], the “Cross-reactivity and fct avidity (native to analogs)*” value turned out to be 1.

In the case of “FVSEKIFY(Aib) [SSX2 41-49 (K41F, A42V, V49Aib)]”, in test [1], the “Cross-reactivity and fct avidity (native to analogs)*” value is greater than 10. Take FVSEKLFTA: the “Cross-reactivity and fct avidity (native to analogs)*” value in test [1] is greater than 10. Same read-out and setting: in the case of “FVSEKMFYV [SSX2 41-49 (K41F, A42V, I46M)]” it was greater than 10; in that of “FVSEKVFYV (T cell peptide epitope analog) [SSX2 41-49 (K41F, A42V, I46V)]”, 1. The same measure, in the same setting: then “FVSNKIFYV [SSX2 41-49 (K41F, A42V, E44N)]”, with greater than 10; and “K(D-Ala)SEKIFYV [SSX2 41-49 (A42(D-Ala))]”, with 10; and “K(D-Val)SEKIFYV [SSX2 41-49 (A42(D-Val))]”, with 3. In the case of KASEKIFYV [SSX2 41-49-NH2], the “Cross-reactivity and fct avidity (native to analogs)*” value in test [1] is greater than 10.

For “KASEKIFYVY (T cell peptide epitope analog) [SSX-241-50, wild-type SSX-2 41-50 decamer, reference compound]”, in test [1], the “activity in cross-reactivity assay (IFN-gamma production by wild-type SSX-2 41-49 specific T cells), in words” value is listed as “no immunological activity; also recorded: significantly less active”.

Turning to KLSEKIFYV [SSX2 41-49-NH2 (A42L)], in test [1], the “Cross-reactivity and fct avidity (native to analogs)*” value stood at 3; the “activity in cross-reactivity assay (IFN-gamma production by wild-type SSX-2 41-49 specific T cells), in words” value is on record as “lower concentration”. For KNal-1SEKIFYV [SSX2 41-49 (A42(Nal-1))], the “Cross-reactivity and fct avidity (native to analogs)*” value in test [1] is recorded as greater than 10. The same measure, in the same setting: then KVSEKIFYI [SSX2 41-49 (A42V, V49I)], with 0.3; and KVSEKIFYV [SSX2 41-49-NH2 (A42V)], with 10. As to YLSEKIFYV-OH [SSX2 41-49 (K41Y, A42L)], the “Relative affinity (1/RA)” value in test [2] is listed as 1.2.
